Measurements taken from patent US20160145242A1, “PHENYLIMIDAZOLE DERIVATIVE, AND THERAPEUTIC MEDICINE OR PREVENTIVE MEDICINE FOR INFLAMMATORY DISEASE, ETC” (NIPPON SODA CO., LTD., priority 2013, published 2016).

Key:
[1] = test system: mouse model of retinal light disorders; test: Retinal light disorder model test (ONL thickness); type: in vivo; conditions: BALB/cCr male mouse, 30 mg/kg oral 30 minutes before 2 hours white light, eyes taken after 4 days
Method: (Retinal Light Disorder Model Test)
The usefulness (improvement rate with respect to retinal light disorders) of the compound of the invention was evaluated using a mouse model of retinal light disorders, generally used as a model of retinal light disorders, (Investigative Ophthalmology & Visual Science, 2002; vol. 43; pp. 1162 to 1167). Here, the improvement rate with respect to the retinal light disorders was calculated based on the thickness of an outer nuclear layer (hereinafter, referred to as “ONL”), which is strongly interfered especially by light application among a retinal cell layers, in a tissue specimen of a perpendicular surface of an eyeball.
Moreover, in the present test, the ONL of a light application group to which only a base was administered was degraded to 30% to 50% of a normal light group.
A test compound was dissolved or suspended in a solvent (1% (w/v) methyl cellulose aqueous solution) and then an administration liquid was prepared so that the test compound to be 30 mg/kg body weight. The dose was set to 10 ml/kg body weight.
A 5-week-old BALB/cCr-based male mouse (weight of approximately 20 g) was bred in a dark place for 48 hours. Subsequently, the test compound administration liquid was orally administered (30 mg/kg). After 30 minutes, […] of white light was continuously applied to the mouse for 2 hours. Next, the mouse was bred in a breeding room with 50 lux of light for 4 days.
An anesthetic (secobarbital sodium) was intraperitoneally administered to anesthetize the mouse and then the mouse was exsanguinated to die. The top portion of the right eyeball was marked with a thread and the eyeball was extracted. […]
The ONL thickness in the tissue specimen was measured for every 200 μm between the optic nerve papilla to where upwardly spaced by 1 mm from the optic nerve papilla using Lumina Vision. The area (AUC) from the optic nerve papilla to where upwardly spaced by 1 mm from the optic papilla in the graph was calculated as an ONL area. […]

CYP2D6 = target: T1, CYP2D6 (Homo sapiens, UniProt P10635); test: Cytochrome P450 inhibitory action, CYP2D6 in human liver microsomes; type: in vitro ADME; conditions: substrate dextromethorphan
T1 construct: Using human liver microsomes pooled as an enzyme source; from tissue; host or cells: pooled human liver microsomes
T1 sequence (P10635 whole entry): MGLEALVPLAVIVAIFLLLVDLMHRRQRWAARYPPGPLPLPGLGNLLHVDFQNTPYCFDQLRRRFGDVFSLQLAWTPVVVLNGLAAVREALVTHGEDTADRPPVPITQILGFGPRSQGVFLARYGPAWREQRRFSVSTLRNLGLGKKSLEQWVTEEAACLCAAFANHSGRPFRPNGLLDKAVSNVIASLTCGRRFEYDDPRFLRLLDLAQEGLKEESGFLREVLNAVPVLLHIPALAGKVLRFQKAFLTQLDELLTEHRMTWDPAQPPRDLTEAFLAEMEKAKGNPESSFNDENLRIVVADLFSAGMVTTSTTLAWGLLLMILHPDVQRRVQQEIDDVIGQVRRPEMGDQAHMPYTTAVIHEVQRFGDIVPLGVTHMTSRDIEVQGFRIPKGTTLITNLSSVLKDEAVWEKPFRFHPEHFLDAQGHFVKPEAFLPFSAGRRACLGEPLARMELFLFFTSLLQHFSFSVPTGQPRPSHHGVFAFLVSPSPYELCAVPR
Method: An inhibitory action of the compound of the present invention with respect to CYP2D6 (dextromethorphan was used as a substrate) and CYP3A4 (midazolam and testosterone were used as substrates) which are isozymes of cytochrome P450 (hereinafter, referred to as “CYP”) serving as a major drug-metabolizing enzyme was examined using human liver microsomes.
Using human liver microsomes pooled as an enzyme source, 1.3 mM NADP as a coenzyme, 3.3 mM D-glucose-6-phosphate, and 0.4 U/mL D-glucose-6-phosphate dehydrogenase, the corresponding substrate ([…] dextromethorphan for CYP2D6, 5 μM midazolam or 50 µM testosterone for CYP3A4) and the compound of the present invention were added such that the final concentration became 0.1, 1, 10 μM and then incubated at 37° C. for 10 minutes. The inhibition rate (%) of the compound of the present invention in each concentration was calculated by quantifying metabolites (CYP2D6; dextrorphan, CYP3A4; 1-hydroxymidazolam or 6β hydroxytestosterone) using HPLC-MS/MS and setting the value of the activity of an enzyme when drug was not incorporated therein as 100%. […]

[2] = test system: human recombinant MAP kinase 1; test: MAP kinase 1 activity inhibitory action; type: biochemical; conditions: 3 μM
Method: The inhibitory action of the compound of the present invention with respect to the activity of the present enzyme was examined using human recombinant MAP kinase 1.
The human recombinant MAP kinase 1 was reacted with 50.0 μg/mL of myelin basic protein and the amount of ^32P phosphorylated myelin basic protein which was a reaction product was measured by a radioactivity measurement method. 3 μM of the compound according to the present invention dissolved in dimethyl sulfoxide was added to the reaction system and the inhibition rate of ^32P phosphorylated myelin basic protein generation (MAP kinase 1 activity inhibition rate) was measured.

## CC(=O)N1CCN(c2ccc(N)c(-n3ccnc3)c2)CC1 [Compound 1-1, 4-acetyl-1-(4-amino-3-imidazole-1-yl-phenyl)piperazine]
[1]
  ONL thickness improvement rate: 100.6%
CYP2D6; pooled human liver microsomes, probe dextromethorphan (printed 5 M), 10 μM, read-out: inhibition rate in the shown concentration
  inhibition at 10 min, 10 µM: 36%
CYP2D6
  IC50: > 10 µM
[2]
  MAP kinase 1 activity inhibition rate: 13%
